Test results taken from patent US9637507B2, “Process for the preparation of liquid tin(II) alkoxides” (CHIANG MAI UNIVERSITY, priority 2012, dated 2017).

Columns and labels:
[1] = literature solids; cited from earlier work
[2] = Storage of liquid tin(II) alkoxides under nitrogen or argon; settings: stored under a nitrogen or argon atmosphere
[3] = Solubility test of tin(II) alkoxides in organic solvents; format: physicochemical; settings: liquid tin(II) alkoxides; temperature range of 25-38° C.

Row | Compound | Stability (moisture, oxygen, colour change) [1] | Storage stability (reactivity) [2] | Solubility in common organic solvents [3]
1 | CC[O][Sn][O]CC [Tin(II) ethoxide, reference compound] | turned yellow rapidly, even when the product was dried and kept under vacuum |  | 
2 | CCCC[O-].CCCC[O-].[Sn+2] [Tin(II) n-butoxide, tin(II) n-butoxide] | extremely moisture and oxygen sensitive | without any significant effect on their reactivity | 
3 | tin(II) n-hexoxide |  |  | soluble in common organic solvents
4 | tin(II) n-octoxide |  |  | soluble in common organic solvents
